The assay concerns the target T1, rhCRTh2 (Homo sapiens, UniProt Q9Y5Y4).
T1 construct: expressed in transfected cells; host or cells: HEK cells (membrane preparation)
T1 sequence (Q9Y5Y4 1-395): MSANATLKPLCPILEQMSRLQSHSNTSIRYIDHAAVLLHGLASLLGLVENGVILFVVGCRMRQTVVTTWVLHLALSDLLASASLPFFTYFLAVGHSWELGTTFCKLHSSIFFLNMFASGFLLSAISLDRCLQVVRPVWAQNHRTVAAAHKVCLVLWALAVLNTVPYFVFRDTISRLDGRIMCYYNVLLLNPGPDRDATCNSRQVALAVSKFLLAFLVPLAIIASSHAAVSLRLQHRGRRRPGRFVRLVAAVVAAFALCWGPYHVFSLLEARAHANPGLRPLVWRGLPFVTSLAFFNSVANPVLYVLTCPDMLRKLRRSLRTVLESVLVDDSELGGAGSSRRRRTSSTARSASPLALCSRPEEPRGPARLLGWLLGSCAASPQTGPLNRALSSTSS
In words: Ligand Binding Assay ([3H]PGD2 displacement, SPA beads coated with HEK cell membranes). Conditions: [3H]PGD2 binding to HEK cell membranes containing CRTh2; read-out: pIC50 value (converted). Here is the method: [^3H]PGD2 was purchased from Perkin Elmer Life Sciences with a specific activity of 100-210 Ci/mmol. All other chemicals were of analytical grade.
HEK cells expressing rhCRTh2/Gα16 were routinely maintained in DMEM containing 10% Foetal Bovine Serum (HyClone), 1 mg/ml geneticin, 2 mM L-glutamine and 1% non-essential amino acids. For the preparation of membranes, the adherent transfected HEKcells were grown to confluence in two layer tissue culture factories (Fisher, catalogue number TKT-170-070E). Maximal levels of receptor expression were induced by addition of […] sodium butyrate for the last 18 hours of culture. The adherent cells were washed once with phosphate buffered saline (PBS, 50 ml per cell factory) and detached by the addition of 50 ml per cell factory of ice-cold membrane homogenisation buffer [20 mM HEPES (pH 7.4), 0.1 mM dithiothreitol, 1 mM EDTA, 0.1 mM phenyl methyl sulphonyl fluoride and 100 µg/ml bacitracin]. Cells were pelleted by centrifugation at 220×g for 10 minutes at 4° C., re-suspended in half the original volume of fresh membrane homogenisation buffer and disrupted using a Polytron homogeniser for 2×20 second bursts keeping the tube in ice at all times. […] The final pellet was re-suspended in 4 ml of membrane homogenisation buffer per cell factory used and the protein content determined. […]
All assays were performed in Corning clear bottomed, white 96-well NBS plates (Fisher). […] (The optimum coating concentrations were determined for each batch of membranes) The beads were pelleted by centrifugation (800×g for 7 minutes at 4° C.), washed once with assay buffer (50 mM HEPES pH 7.4 containing 5 mM magnesium chloride) and finally re-suspended in assay buffer at a bead concentration of 10 mg/ml. […]
Compounds and DK-PGD2 were dissolved in DMSO and diluted in the same solvent to 100× the required final concentration. […] The assay plate was incubated at room temperature for 2 hours and counted on a Wallac Microbeta liquid scintillation counter (1 minute per well).
Turning to `CN(C)S(=O)(=O)c1ccc(Oc2cc(CC(=O)O)ccc2Cl)c(Cl)c1` [Example 7, (4-chloro-3-{2-chloro-4-[(dimethylamino)sulfonyl]phenoxy}phenyl)acetic acid], the IC50 is 7.94 nM.

Consider `CS(=O)(=O)c1ccc(Oc2cc(CC(=O)O)ccc2Cl)c(F)c1` [Example 9, {4-chloro-3-[2-fluoro-4-(methylsulfonyl)phenoxy]phenyl}acetic acid], for which the IC50 is 14.1 nM.

Regarding `CS(=O)(=O)c1ccc(Oc2cc(CC(=O)O)ccc2Cl)c(C#N)c1` [Example 11, {4-chloro-3-[2-cyano-4-(methylsulfonyl)phenoxy]phenyl}acetic acid], the IC50 is 8.91 nM.

Source of the values: patent publication US8148572B2, “Compounds” (AstraZeneca AB, priority 2005, dated 2012).
